Five compounds from ChEMBL document CHEMBL1201862, “PubChem BioAssay data set” (2004) can be followed below.

Some test systems named below: SF-295; OVCAR-8; CCRF-CEM; TK-10; SNB-75; HCT-15; RXF 393; SF-268; NCI-H522; ACHN; UO-31; DLD-1; OVCAR-3; CAKI-1; HOP-92; EKVX; SR; RXF 631.
Experiment in all cases: growth of human tumour cells (NCI), 48 h

Each structure is given as a SMILES string.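 All cell lines were grown in 96-well plates and treated with compound for 48 hours. The concentration for 50% growth inhibition is given as GI50.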 Calls of active or inactive are those of the source. Cut-off read from the data, not from the text of the source: active = GI50 up to about 1.1 µM and inactive = higher.

In the case of `O=C(NN1C(=O)C(Cl)C1c1cccc(O)c1)c1ccccc1O` (configuration not stated), the GI50 in the assay with SF-295 was > 100 µM (inactive); in the assay on OVCAR-8 it was > 100 µM (inactive); in the assay with CCRF-CEM, > 100 µM (inactive); in the assay on TK-10, > 100 µM (inactive); in the assay with SNB-75, > 100 µM (inactive); in the assay with HCT-15, over 100 µM. The GI50 in the assay on RXF 393, in the assay on SF-268, in the assay with NCI-H522, in the assay with ACHN, in the assay on UO-31 and in the assay on DLD-1 was > 100 µM (inactive) each time. Also, the GI50 in the assay with OVCAR-3 is > 100 µM (inactive).

As for `COc1cc2c(cc1OC)C(Cl)C(c1ccc(Cl)c(Cl)c1)=C2Cl` (configuration not stated), the GI50 with SF-295 is 9.82 µM (inactive); in the assay on OVCAR-8, 6.62 µM (inactive); with CCRF-CEM, 3.02 µM (inactive); in the assay with TK-10, 20.7 µM (inactive); in the assay on SNB-75, 8.79 µM (inactive); in the assay with CAKI-1, 11.2 µM (inactive). In addition, the GI50 in the assay on HCT-15 is 3.33 µM; in the assay on SF-268, 6.21 µM (inactive); in the assay with NCI-H522 it was 66.4 µM (inactive); in the assay with ACHN it was 10.2 µM (inactive); in the assay with HOP-92, 4.15 µM (inactive); with UO-31, 10.6 µM (inactive). In addition, the results for the GI50 in the assay on EKVX and in the assay on OVCAR-3 were 18 µM (inactive) and 4.18 µM (inactive), respectively.

In the case of `COc1ccc(C2SCC(=O)N2NC(=O)c2ccncc2)cc1F` (configuration not stated), the GI50 with SF-295 is > 100 µM (inactive); with TK-10, > 100 µM (inactive); in the assay on SNB-75, > 100 µM (inactive); in the assay with SR, > 100 µM (inactive); in the assay on CAKI-1 it was > 100 µM (inactive); with HCT-15, over 100 µM. For the same compound, the GI50 in the assay on RXF 393, with SF-268, in the assay with NCI-H522, in the assay on ACHN, in the assay on HOP-92 and in the assay with DLD-1 was > 100 µM (inactive) each time.

Consider `NC(=O)N/C=C1\C(=O)Oc2ccccc2C1=O`, for which the GI50 with SF-295 is 51.8 µM (inactive); in the assay with OVCAR-8, > 100 µM (inactive); in the assay on CCRF-CEM it was > 100 µM (inactive); in the assay with TK-10 it was > 100 µM (inactive); with HCT-15, 48.5 µM; in the assay with RXF 393, 17.4 µM (inactive). In addition, the GI50 with SF-268 was 95.7 µM (inactive); in the assay with ACHN, 48.2 µM (inactive); in the assay on HOP-92, 56.9 µM (inactive); in the assay with UO-31, 31.9 µM (inactive); with DLD-1 it was > 100 µM (inactive); with EKVX it was > 100 µM (inactive). The GI50 in the assay with OVCAR-3 is 84.7 µM (inactive).

With `COc1ccc(C2c3cc4c(cc3OC(O)(CO)C2C(=O)O)OCO4)cc1.COc1ccc(C2c3cc4c(cc3OC3(O)COC(=O)C23)OCO4)cc1` (configuration not stated), the GI50 in the assay on SF-295 was 22.8 µM (inactive); in the assay with OVCAR-8, 20.5 µM (inactive); in the assay with CCRF-CEM it was 18.7 µM (inactive); in the assay with TK-10, 67.6 µM (inactive); with SNB-75, 30.3 µM (inactive); in the assay with SR, 19.2 µM (inactive). The GI50 in the assay on HCT-15 is 17.7 µM; in the assay with RXF 393 it was 16.9 µM (inactive); with SF-268, 28 µM (inactive); in the assay with RXF 631, 19.5 µM (inactive); with HOP-92, 21 µM (inactive); in the assay on UO-31, 29.9 µM (inactive). Further, the GI50 with DLD-1 is 21.8 µM (inactive); with EKVX, 31.4 µM (inactive); in the assay with OVCAR-3 it was 22.4 µM (inactive).
